These results are taken from patent publication US20060034941A1, “Organ preconditioning, arrest, protection, preservation and recovery” (priority 2002, published 2006).

For series [1], the system named is canine neutrophils stimulated by platelet activating factor. The series is described as follows: In vitro superoxide anion generation by PAF-activated neutrophils. Type of series: cell-based. The note with it: PAF 100 nmol; 0.1 to 10 uM L, 0.1 to 100 uM ADO; synergy at 1 uM, 5 uM and 10 uM. As to the method:
PMNs were isolated using the Ficoll-Pacque (Sigma Chemical, St. Louis, Mo.) technique. The cells were adjusted to ˜9×10^7 cells/ml. […] Superoxide anion (—O.2) production by neutrophils stimulated by platelet activating factor (100 nmol) were determined by measuring the superoxide dismutase-inhibitable reduction of ferricytochrome c to ferrocytochrome c spectrophotometrically at 550 nm using a V-Max Microtiter Plate Reader (Molecular Devices, Palo Alto, Calif.). […] Concentrations indicated are final concentrations in each cuvette.

For series [2], the system named is A-V nodal and SA pacemakers. The note with it: cited from earlier work.
The target in a further series is human NK(1) receptor (Homo sapiens, UniProt P25103). The note with it: cited from earlier work.
human NK(1) receptor, sequence (P25103 whole entry): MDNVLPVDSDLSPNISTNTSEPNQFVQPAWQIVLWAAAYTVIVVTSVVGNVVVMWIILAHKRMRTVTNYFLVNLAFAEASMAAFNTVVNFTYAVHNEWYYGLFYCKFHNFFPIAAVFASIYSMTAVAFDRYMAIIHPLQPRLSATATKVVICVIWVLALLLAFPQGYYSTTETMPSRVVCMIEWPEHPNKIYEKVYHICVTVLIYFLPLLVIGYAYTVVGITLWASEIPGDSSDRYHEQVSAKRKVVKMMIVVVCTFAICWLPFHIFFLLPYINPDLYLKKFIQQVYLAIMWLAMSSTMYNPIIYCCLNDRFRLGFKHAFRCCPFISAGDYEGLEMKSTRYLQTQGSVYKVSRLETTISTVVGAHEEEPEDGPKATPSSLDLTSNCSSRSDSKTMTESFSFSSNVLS
In the next series the test system is in vivo rabbit model. The note with it: reduced MAP similar to CCPA; cited from earlier work.
For series [3] the following is noted: i.v., cited from earlier work.

Molecules are shown by their SMILES. Like-named read-outs stand apart in the source and are kept apart here.

What is called Ki is the dissociation constant of the complex between target and ligand, obtained from inhibition or displacement.

On to `Nc1ncnc2c1ncn2[C@@H]1O[C@H](CO)[C@@H](O)[C@H]1O` [Ado-only, adenosine], for which the superoxide anion generation entry in series [1] was “reduce superoxide anion generation”. In addition, the “effectiveness in slowing the conductance of A-V nodal relative to SA pacemakers” value in series [2] is listed as 30 times.

With `Cc1cccc(C)c1NC(=O)C[C@H]1CCN(C(=O)c2cc(C(F)(F)F)cc(C(F)(F)F)c2)[C@@H](Cc2ccccc2)C1.O=C(O)C[C@H](O)C(=O)O` (relative stereo) [R116301, (2R-trans)-4-[1-[3,5-bis(trifluoromethyl)benzoyl]-2-(phenylmethyl)-4-piperidinyl]-N-(2,6-dimethylphenyl)-1-acetamide (S)-Hydroxybutanedioate], on human NK(1) receptor, the Ki is 0.45 nM; the “selectivity toward NK(2) and NK(3) receptors” value was “over 200 fold”.

Turning to `CCCCC#Cc1nc(N)c2ncn([C@@H]3O[C@H](C(=O)NCC)[C@@H](O)[C@H]3O)c2n1` [2HE-NECA, 2-hexynyl-5′-N-ethyl-carboxamindoadenosine], the “effect on infarct size” value in the series on in vivo rabbit model is reported as “did not change infarct size”. `CCN(CC)CC(=O)Nc1c(C)cccc1C` [Lido-only, lidocaine]: the superoxide anion generation entry in series [1] is on record as “reduce superoxide anion generation”. The figures for the maximum safe dose in series [3] (with epinephrine) and in series [3] (without epinephrine) were ~7 mg/kg and “approximately 4 mg/kg”, respectively.

`CC(C)NCC(O)COc1ccc(CC(N)=O)cc1` (stereo not shown) [atenolol]: the “effect on infarct size” value with in vivo rabbit model is recorded as “did not change infarct size”. In the case of `CCNC(=O)[C@H]1O[C@@H](n2cnc3c(N)ncnc32)[C@H](O)[C@@H]1O` [NECA, 5′-N-ethyl-carboxamindoadenosine], the “effect on infarct size” value in the series with in vivo rabbit model is “did not change infarct size”.
